“Also recorded” adds a separate entry of the source.
Columns and labels:
[1] = system: maternal serum samples (antibodies); assay: ELISA peptide-binding of maternal sera, expanded peptide collection (Example 5); set-up: species or system human; settings: for Binding / reactivity of maternal sera to peptide (in words): Example 5
Description: The gp120 and gp41 peptides used in this experiment include peptides 60 [SEQ ID NO:9], 93 [SEQ ID NO:10], 94 [SEQ ID NO:1], 95 [SEQ ID NO:11], 96 [SEQ ID NO:12], 97 [SEQ ID NO:13], 59 [SEQ ID NO:14], 106 [SEQ ID NO:15], 107 [SEQ ID NO:[…]], 1029/33 [SEQ ID NO:2], p18p [SEQ ID NO:17], B138 [SEQ ID NO:3], 466 [SEQ ID NO:4], 497 [SEQ ID NO:18], 117 [SEQ ID NO:19], F560 [SEQ ID NO:20], 35 [SEQ ID NO:5], 120 [SEQ ID NO:21], 121 [SEQ ID NO:22], 123 [SEQ ID NO:23], 36 [SEQ ID NO:24], 40 [SEQ ID NO:25], 41 [SEQ ID NO:26], 649 [SEQ ID NO:6], 53 [SEQ ID NO:7], 55 [SEQ ID NO:27], 128 [SEQ ID NO:28], 129 [SEQ ID NO:29], 132 [SEQ ID NO:30], 57 [SEQ ID NO:8], and 1103/55 [SEQ ID NO:31] from Table 2. These peptides were synthesized based on the same HIV IIIB isolate as were the peptides of Table 2. Alternative designations for these peptides are provided in brackets.
Each of the peptides was at least 85% pure, making them suitable for ELISA analyses. The average length of these peptides was 18 amino acid residues, which allows for a certain degree of local flexibility and conformational folding, thus facilitating detection of antibody species with reactivities to shaped structures.
The maternal serum samples were obtained from the Mothers/Infants Cohort Study described in Example 1. For the ELISA peptide-binding analyses performed essentially as described in Example 3, maternal serum samples were diluted to 1:50 or 1:500 with blocking buffer (1% bovine serum albumin in phosphate-buffered saline containing 0.05% Tween 20). Binding was measured using 10 μg/mL peptide per well and was considered positive if the experimental/control OD450nm ratio was ≥2. Normal (HIV seronegative) human sera were used as controls.

[2] = system: maternal HIV+ sera (antibodies); assay: RIA / ELISA binding of maternal HIV+ sera to gp120 and gp41 peptides (Example 3); set-up: species or system human
How it was run: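 Peptides were coated at 10 μg/ml in carbonate buffer pH 9.6 and blocked with 1% BSA. Sera at 1:50 and 1:500 were incubated overnight at 4°C and detected with ¹²⁵I anti-human IgG (RIA) or HRP/TMB at OD450 (ELISA). Specific binding was taken as peptide minus no-peptide wells, scored as a ratio to normal human serum.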

## LGIWGCSGKLIC [Peptide 41-2]
[1]
  Binding / reactivity of maternal sera to peptide (in words): Virtually all samples reacted; also recorded: recognized by the transmission group
[1]; transmission and non-transmission groups
  Percent of both groups that bound to the peptide: 90%

## LAVERYLKDQQLLGI [Peptide 121]
[2]; Serum No. 1, Non-Transmission Group
  Binding of maternal HIV+ serum to peptide (sera/NHS ratio): ++ (which value is greater than 3)
[2]; Serum No. 2, Non-Transmission Group
  Binding of maternal HIV+ serum to peptide (sera/NHS ratio): - (specific OD450 or cpm of sera sample binding to peptide divided by the specific OD450 or cpm of NHS sample binding to peptide, which value is less than 2)
[2]; Serum No. 3, Non-Transmission Group
  Binding of maternal HIV+ serum to peptide (sera/NHS ratio): - (specific OD450 or cpm of sera sample binding to peptide divided by the specific OD450 or cpm of NHS sample binding to peptide, which value is less than 2)
[2]; Serum No. 4, Transmission Group
  Binding of maternal HIV+ serum to peptide (sera/NHS ratio): - (specific OD450 or cpm of sera sample binding to peptide divided by the specific OD450 or cpm of NHS sample binding to peptide, which value is less than 2)
[2]; Serum No. 5, Transmission Group
  Binding of maternal HIV+ serum to peptide (sera/NHS ratio): - (specific OD450 or cpm of sera sample binding to peptide divided by the specific OD450 or cpm of NHS sample binding to peptide, which value is less than 2)
[2]; Serum No. 6, Non-Transmission Group
  Binding of maternal HIV+ serum to peptide (sera/NHS ratio): ++ (which value is greater than 3)
[2]; Serum No. 7, Non-Transmission Group
  Binding of maternal HIV+ serum to peptide (sera/NHS ratio): - (specific OD450 or cpm of sera sample binding to peptide divided by the specific OD450 or cpm of NHS sample binding to peptide, which value is less than 2)
[2]; Serum No. 8, Non-Transmission Group
  Binding of maternal HIV+ serum to peptide (sera/NHS ratio): - (specific OD450 or cpm of sera sample binding to peptide divided by the specific OD450 or cpm of NHS sample binding to peptide, which value is less than 2)
[2]; Serum No. 9, Non-Transmission Group
  Binding of maternal HIV+ serum to peptide (sera/NHS ratio): - (specific OD450 or cpm of sera sample binding to peptide divided by the specific OD450 or cpm of NHS sample binding to peptide, which value is less than 2)
[2]; Serum No. 10, Transmission Group
  Binding of maternal HIV+ serum to peptide (sera/NHS ratio): - (specific OD450 or cpm of sera sample binding to peptide divided by the specific OD450 or cpm of NHS sample binding to peptide, which value is less than 2)
[2]; Serum No. 11, Non-Transmission Group
  Binding of maternal HIV+ serum to peptide (sera/NHS ratio): - (specific OD450 or cpm of sera sample binding to peptide divided by the specific OD450 or cpm of NHS sample binding to peptide, which value is less than 2)
[2]; Serum No. 12, Non-Transmission Group
  Binding of maternal HIV+ serum to peptide (sera/NHS ratio): - (specific OD450 or cpm of sera sample binding to peptide divided by the specific OD450 or cpm of NHS sample binding to peptide, which value is less than 2)
[2]; Serum No. 13, Transmission Group
  Binding of maternal HIV+ serum to peptide (sera/NHS ratio): - (specific OD450 or cpm of sera sample binding to peptide divided by the specific OD450 or cpm of NHS sample binding to peptide, which value is less than 2)
[2]; Serum No. 14, Transmission Group
  Binding of maternal HIV+ serum to peptide (sera/NHS ratio): ++ (which value is greater than 3)
[2]; Serum No. 15, Transmission Group
  Binding of maternal HIV+ serum to peptide (sera/NHS ratio): ++ (which value is greater than 3)
[2]; Serum No. 16, Non-Transmission Group
  Binding of maternal HIV+ serum to peptide (sera/NHS ratio): ++ (which value is greater than 3)
[2]; Serum No. 17, Non-Transmission Group
  Binding of maternal HIV+ serum to peptide (sera/NHS ratio): ++ (which value is greater than 3)
[2]; Serum No. 18, Non-Transmission Group
  Binding of maternal HIV+ serum to peptide (sera/NHS ratio): ++ (which value is greater than 3)
[2]; Serum No. 19, Transmission Group
  Binding of maternal HIV+ serum to peptide (sera/NHS ratio): - (specific OD450 or cpm of sera sample binding to peptide divided by the specific OD450 or cpm of NHS sample binding to peptide, which value is less than 2)
[2]; Serum No. 20, Non-Transmission Group
  Binding of maternal HIV+ serum to peptide (sera/NHS ratio): - (specific OD450 or cpm of sera sample binding to peptide divided by the specific OD450 or cpm of NHS sample binding to peptide, which value is less than 2)
[2]; all 20 samples
  Percent of the maternal serum samples that bound to the peptide: 35%
[1]
  Binding / reactivity of maternal sera to peptide (in words): recognized by the transmission group
